Data as given in patent US8580965B2, “Substituted sulfonamide compounds” (Gruenenthal GmbH, priority 2006, dated 2013).

Legend:
[1] = molecular target: T1, B1R receptor of the rat (bradykinin 1 receptor) (Rattus norvegicus, UniProt P97583); test: FLIPR Ca2+ assay (Fluo-4) on CHO K1 cells stably transfected with the B1R gene of the rat; % activation and % inhibition at 10 μM; assay type: cell-based; settings: CHO-K1, test substance 10 μM; CHO K1 rB1R cells; Ca2+ inflow after 100 nM Des-Arg9-bradykinin; read-out: B1R antagonism, rat [10 μM] % inhibition
T1 construct: host or cells: CHO K1 cells (rB1R cells)
T1 sequence (P97583 1-337): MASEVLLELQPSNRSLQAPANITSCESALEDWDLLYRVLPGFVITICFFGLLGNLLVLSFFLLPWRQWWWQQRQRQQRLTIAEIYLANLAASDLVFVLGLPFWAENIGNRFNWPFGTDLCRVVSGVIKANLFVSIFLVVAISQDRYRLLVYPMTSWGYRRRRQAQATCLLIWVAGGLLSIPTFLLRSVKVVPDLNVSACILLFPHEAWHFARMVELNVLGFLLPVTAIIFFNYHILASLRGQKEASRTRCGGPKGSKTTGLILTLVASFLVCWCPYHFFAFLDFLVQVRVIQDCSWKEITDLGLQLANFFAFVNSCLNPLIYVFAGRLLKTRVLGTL
Procedure, shortened: (§1)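 CHO K1 cells stably expressing human or rat B1R, Fluo-4 loaded, read by FLIPR (peak fluorescence). Compound at 10 µM first gives % activation versus agonist; after 10 min, agonist (human: 0.5 nM Lys-Des-Arg9-bradykinin; rat: 100 nM Des-Arg9-bradykinin) gives % inhibition relative to maximal inhibition.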

[2] = molecular target: T2, human B1R receptor (bradykinin 1 receptor) (Homo sapiens, UniProt P46663); test: FLIPR Ca2+ assay (Fluo-4) on CHO K1 cells stably transfected with the human B1R gene; % activation and % inhibition at 10 μM; assay type: cell-based; settings: CHO-K1, test substance 10 μM; CHO K1 hB1R cells; Ca2+ inflow after 0.5 nM Lys-Des-Arg9-bradykinin; read-out: B1R antagonism, human [10 μM] % inhibition
T2 construct: host or cells: CHO K1 cells (hB1R cells)
T2 sequence (P46663 1-353): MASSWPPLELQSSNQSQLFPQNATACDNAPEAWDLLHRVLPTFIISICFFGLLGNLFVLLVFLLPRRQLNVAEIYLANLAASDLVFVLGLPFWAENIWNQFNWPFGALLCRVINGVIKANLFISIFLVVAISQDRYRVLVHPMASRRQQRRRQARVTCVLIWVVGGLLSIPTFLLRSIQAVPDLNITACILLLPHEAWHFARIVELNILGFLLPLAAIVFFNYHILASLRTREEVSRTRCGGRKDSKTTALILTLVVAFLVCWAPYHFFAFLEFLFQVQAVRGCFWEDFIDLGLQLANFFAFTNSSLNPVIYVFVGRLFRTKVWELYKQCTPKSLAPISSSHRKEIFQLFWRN
Procedure, shortened: as §1

| Structure (SMILES) | inhibition at 10 µM [1] [%] | inhibition at 10 µM [2] [%] |
| --- | --- | --- |
| Cc1cc(S(=O)(=O)N(C)CCOCC(=O)N2CCC(O)(c3ccc(Cl)cc3)CC2)c(C)s1 [Example 256, N-(2-(2-(4-(4-chlorophenyl)-4-hydroxypiperidin-1-yl)-2-oxoethoxy)ethyl)-N,2,5-trimethylthiophene-3-sulfonamide] | 90.7 | 56.3 |
| Cc1cc(S(=O)(=O)N(C)CCOCC(=O)N2CCC(O)(c3ccc(Br)cc3)CC2)c(C)s1 [Example 257, N-(2-(2-(4-(4-bromophenyl)-4-hydroxypiperidin-1-yl)-2-oxoethoxy)ethyl)-N,2,5-trimethylthiophene-3-sulfonamide] | 101 | 49.4 |
| Cc1cc(S(=O)(=O)N(C)CCOCC(=O)N2CCC(O)(c3cccc(C(F)(F)F)c3)CC2)c(C)s1 [Example 258, N-(2-(2-(4-hydroxy-4-(3-(trifluoromethyl)phenyl)piperidin-1-yl)-2-oxoethoxy)ethyl)-N,2,5-trimethylthiophene-3-sulfonamide] | 96.1 | 71.5 |
| Cc1cc(S(=O)(=O)N(C)CCOCC(=O)N2CCC(O)(c3ccc(Cl)c(C(F)(F)F)c3)CC2)c(C)s1 [Example 259, N-(2-(2-(4-(4-chloro-3-(trifluoromethyl)phenyl)-4-hydroxypiperidin-1-yl)-2-oxoethoxy)ethyl)-N,2,5-trimethylthiophene-3-sulfonamide] | 93.3 | 94 |
| CN(CCOCC(=O)N1CCC(O)(c2ccc(Cl)cc2)CC1)S(=O)(=O)c1cc(Cl)sc1Cl [Example 260, 2,5-dichloro-N-(2-(2-(4-(4-chlorophenyl)-4-hydroxypiperidin-1-yl)-2-oxoethoxy)ethyl)-N-methylthiophene-3-sulfonamide] | 91.1 | 73.1 |
| CN(CCOCC(=O)N1CCC(O)(c2ccc(Br)cc2)CC1)S(=O)(=O)c1cc(Cl)sc1Cl [Example 261, N-(2-(2-(4-(4-bromophenyl)-4-hydroxypiperidin-1-yl)-2-oxoethoxy)ethyl)-2,5-dichloro-N-methylthiophene-3-sulfonamide] | 98.5 | 87.8 |
| CN(CCOCC(=O)N1CCC(O)(c2cccc(C(F)(F)F)c2)CC1)S(=O)(=O)c1cc(Cl)sc1Cl [Example 262, 2,5-dichloro-N-(2-(2-(4-hydroxy-4-(3-(trifluoromethyl)phenyl)piperidin-1-yl)-2-oxoethoxy)ethyl)-N-methylthiophene-3-sulfonamide] | 94.2 | 73.6 |
| CN(CCOCC(=O)N1CCC(O)(c2ccc(Cl)c(C(F)(F)F)c2)CC1)S(=O)(=O)c1cc(Cl)sc1Cl [Example 263, 2,5-dichloro-N-(2-(2-(4-(4-chloro-3-(trifluoromethyl)phenyl)-4-hydroxypiperidin-1-yl)-2-oxoethoxy)ethyl)-N-methylthiophene-3-sulfonamide] | 70.5 | 42.9 |
| COc1cc(C)cc(C)c1S(=O)(=O)N1CCC(OCC(=O)N2CCC(O)(c3ccc(Br)cc3)CC2)C1 (stereo not shown) [Example 264, 1-(4-(4-bromophenyl)-4-hydroxypiperidin-1-yl)-2-(1-(2-methoxy-4,6-dimethylphenylsulfonyl)pyrrolidin-3-yloxy)ethanone] | 4.5 | 64.5 |
| COc1cc(C)cc(C)c1S(=O)(=O)N1CCC(OCC(=O)N2CCC(O)(Cc3ccccc3)CC2)C1 (stereo not shown) [Example 265, 1-(4-benzyl-4-hydroxypiperidin-1-yl)-2-(1-(2-methoxy-4,6-dimethylphenylsulfonyl)pyrrolidin-3-yloxy)ethanone] | 29.5 | 54.1 |
| O=C(COCC1CCCN1S(=O)(=O)c1cc(Cl)sc1Cl)N1CCC(O)(c2cccs2)CC1 (stereo not shown) [Example 266, 2-((1-(2,5-dichlorothiophen-3-ylsulfonyl)pyrrolidin-2-yl)methoxy)-1-(4-hydroxy-4-(thiophen-2-yl)piperidin-1-yl)ethanone] | 78.6 | 21.9 |
| COc1cc(C)c(S(=O)(=O)N2CCC(COCC(=O)N3CCC(O)(c4cccs4)CC3)C2)c(C)c1 (stereo not shown) [Example 267, 1-(4-hydroxy-4-(thiophen-2-yl)piperidin-1-yl)-2-((1-(4-methoxy-2,6-dimethylphenylsulfonyl)pyrrolidin-3-yl)methoxy)ethanone] | 97.8 | 90.6 |
| COc1cc(C)c(S(=O)(=O)N(CCOCC(=O)N2CCC(O)(c3cccs3)CC2)CC2CC2)c(C)c1C [Example 268, N-(cyclopropylmethyl)-N-(2-(2-(4-hydroxy-4-(thiophen-2-yl)piperidin-1-yl)-2-oxoethoxy)ethyl)-4-methoxy-2,3,6-trimethylphenylsulfonamide] | 98.8 | 99.1 |
| COc1cc(C)c(S(=O)(=O)N(CCOCC(=O)N2CCC(O)(c3cccs3)CC2)CC(C)C)c(C)c1C [Example 269, N-(2-(2-(4-hydroxy-4-(thiophen-2-yl)piperidin-1-yl)-2-oxoethoxy)ethyl)-N-isobutyl-4-methoxy-2,3,6-trimethylphenylsulfonamide] | 99.1 | 98.4 |
| O=C(COCC1CCCCN1S(=O)(=O)c1c(Cl)cccc1Cl)N1CCC(O)(c2cccs2)CC1 (stereo not shown) [Example 270, 2-((1-(2,6-dichlorophenylsulfonyl)piperidin-2-yl)methoxy)-1-(4-hydroxy-4-(thiophen-2-yl)piperidin-1-yl)ethanone] | 99.7 | 93.9 |
| O=C(COCC1CCCCN1S(=O)(=O)c1cc(Cl)sc1Cl)N1CCC(O)(c2ccccc2)CC1 (stereo not shown) [Example 271, 2-((1-(2,5-dichlorothiophen-3-ylsulfonyl)piperidin-2-yl)methoxy)-1-(4-hydroxy-4-phenylpiperidin-1-yl)ethanone] | 78.3 | 41.9 |
| O=C(COCC1CCN(S(=O)(=O)c2c(Cl)cc(Cl)cc2Cl)C1)N1CCC(O)(c2ccc(Cl)cc2)CC1 (stereo not shown) [Example 272, 1-(4-(4-chlorophenyl)-4-hydroxypiperidin-1-yl)-2-((1-(2,4,6-trichlorophenylsulfonyl)pyrrolidin-3-yl)methoxy)ethanone] | 24.1 | 54.1 |
| O=C(COCC1CCCCN1S(=O)(=O)c1csc2ccccc12)N1CCC(O)(c2cccnc2)CC1 (stereo not shown) [Example 273, 2-((1-(benzo[b]thiophen-3-ylsulfonyl)piperidin-2-yl)methoxy)-1-(4-hydroxy-4-(pyridin-3-yl)piperidin-1-yl)ethanone] | 101 | 103 |
| O=C(COCC1CCCCN1S(=O)(=O)c1csc2ccccc12)N1CCC(O)(Cc2ccccc2)CC1 (stereo not shown) [Example 274, 2-((1-(benzo[b]thiophen-3-ylsulfonyl)piperidin-2-yl)methoxy)-1-(4-benzyl-4-hydroxypiperidin-1-yl)ethanone] | 76 | 96.4 |
| COc1cc(C)c(S(=O)(=O)N(C)CCOCCC(=O)N2CCC(O)(c3ccc(Cl)cc3)CC2)c(C)c1 [Example 275, N-(2-(3-(4-(4-chlorophenyl)-4-hydroxypiperidin-1-yl)-3-oxopropoxy)ethyl)-4-methoxy-N,2,6-trimethylphenylsulfonamide] | 92.4 | 100 |
| COc1cc(C)c(S(=O)(=O)N(C)CCOCCC(=O)N2CCC(O)(c3ccccc3)CC2)c(C)c1 [Example 276, N-(2-(3-(4-hydroxy-4-phenylpiperidin-1-yl)-3-oxopropoxy)ethyl)-4-methoxy-N,2,6-trimethylphenylsulfonamide] | 88.3 | 70.7 |
| COc1cc(C)c(S(=O)(=O)N(C)CCOCCC(=O)N2CCC(O)(Cc3ccccc3)CC2)c(C)c1 [Example 277, N-(2-(3-(4-benzyl-4-hydroxypiperidin-1-yl)-3-oxopropoxy)ethyl)-4-methoxy-N,2,6-trimethylphenylsulfonamide] | 88.2 | 86.8 |
| COc1cc(C)c(S(=O)(=O)N(C)CCOCCC(=O)N2CCC(O)(c3ccc(Cl)c(C(F)(F)F)c3)CC2)c(C)c1 [Example 278, N-(2-(3-(4-(4-chloro-3-(trifluoromethyl)phenyl)-4-hydroxypiperidin-1-yl)-3-oxopropoxy)ethyl)-4-methoxy-N,2,6-trimethylphenylsulfonamide] | 99.9 | 96.4 |
